Assay results taken from patent US10385021B2, “Carbamate compound and use thereof” (SUMITOMO CHEMICAL COMPANY, LIMITED, priority 2015, dated 2019).

Test system: wheat rust fungus (Puccinia recondita)
Test: Test Example 2: wheat rust, foliar spray before inoculation, lesion area
Format: in vivo
Details: 200 ppm foliar spray, wheat (Shirogane), inoculated 5 days after spraying, formulation per Formulation Example 6

For `COC(=O)Nc1ccccc1COc1ccc(-c2ccccn2)cc1` [methyl N-(2-{[4-(pyridine-2-yl)phenoxy)methyl}phenyl)carbamate], the “area of the lesion relative to untreated wheat” value was at least 70%.
